Where “and” joins values, the source holds several entries; their conditions need not be identical. Identical values can stand only once.
Legend:
[1] = Phosphate binding capacity, 3.2 mmol compound in 25 ml 20 mmol l^-1 phosphate buffer (Example 1)
Procedure: In Table 1, the values indicate respective percentage phosphate binding capacity at each of pH3, pH7 and pH8, n indicating the number of trials made for each compound.
The phosphate binding capacity was measured by mixing 3.2 mmol of the compound with 25 ml of 20 mmol l^−1 phosphate buffer for 30 min at 25° C. For all compounds except CT2000, which compounds were dry powders, the compounds were merely weighed and dosed. For CT2000, the slurry was dosed in an amount such as to give an equivalent of 1 g of a powder dried to constant weight at 40° C. Sodium phosphate and sodium hydrogen phosphate were mixed to provide respective phosphate solutions at pH3, 7 and 8 (HCl being added to provide pH3). […] The results are shown in Table 1, in which n refers to the number of observations and the values as the % of phosphate precipitated out of solution, calculated as follows:
where • x=mmol phosphate in solution after precipitation; and • y=mmol phosphate in solution without precipitation.

[2] = Measurement of phosphate binding M4: 1 g in 25 ml 40 mmol l^-1 phosphate buffer, pH 3-8 (Examples 3 and 4)
[3] = Body weight and faecal hydration of rats fed binder in diet; conditions: rat, in vivo
Procedure: Total faecal samples from each animal were mixed to ensure a homogeneity and duplicate one gram aliquots weighed. The percentage hydration of the stool was calculated following freeze drying to constant weight.
Following feeding with the modified diets for 7 days, animals were transferred to metabowls for collection of total 24 hour faecal and urine excretion.

[4] = rat, in vivo
[5] = Urine and faecal phosphate excretion in rats fed binder in diet; conditions: rat, in vivo
[6] = Phosphate binding capacity Method 2: as Method 1 but 20 mmol l^-1 phosphate buffer, increasing weight of compound
[7] = Phosphate binding in food, Method 3 (food slurry in 0.01 M HCl)
[8] = 3.2 mmol compound, 25 ml 20 mmol l^-1 phosphate buffer, 30 min, 25° C.

| Molecule | percentage phosphate binding capacity, pH 3 [1] | percentage phosphate binding capacity, pH 7 [1] | percentage phosphate binding capacity, pH 8 [1] | increase in phosphate binding at pH 3 compared to pH 8 [2] | Percentage phosphate binding at pH 3 ([2]; pH 3) | Percentage phosphate binding at pH 5 ([2]; pH 5) | Percentage phosphate binding at pH 7 ([2]; pH 7) | Percentage phosphate binding at pH 8 ([2]; pH 8) | mean weight gain [3] | Serum aluminium [4] | Serum calcium [4] | Serum iron [4] | Urine aluminium [4] | Total faecal phosphate [5] | Urine phosphate [5] | faecal hydration compared to the controls [3] | other results |
| --- | --- | --- | --- | --- | --- | --- | --- | --- | --- | --- | --- | --- | --- | --- | --- | --- | --- |
| O=C([O-])[O-].[Ca+2] [CaCO3, calcium carbonate] | 15.3 ± 0.5% | 9.7 ± 1.8% | 2.4 ± 1.8% | 5.9 fold | 69% and 72% | 63% and 70% | 30% and 43% | 8% and 16% | 38-53 grams | 0.33 ± 0.05 µmol/L | 2.93 ± 0.09 (n = 4)β mmol l^−1 | 41.9 ± 10.8 (n = 4) mmol l^−1 | 0.50 ± 0.21 µg | 213 ± 16 μmol g^−1 dry weight faeces | 857 ± 25 µmol |  |  |
| O.O.O=S(=O)([O-])[O-].[Ca+2] [CaSO4•2H2O, Calcium Sulphate Dihydrate] |  |  |  |  |  |  |  |  |  |  |  |  |  |  |  |  | Percentage phosphate bound at pH 3 ([2]; pH 3): 0%; Percentage phosphate bound at pH 5 ([2]; pH 5): 0%; Percentage phosphate bound at pH 7 ([2]; pH 7): 57%; Percentage phosphate bound at pH 8 ([2]; pH 8): 89% |
| [Ce+3].[OH-].[OH-].[OH-] [Ce(OH)3] |  |  |  |  |  |  |  |  |  |  |  |  |  |  |  |  | percentage phosphate binding capacity, pH 3 [1, 8]: 69.8 ± 7.5%; percentage phosphate binding capacity, pH 7 [1, 8]: 57.8 ± 8.9%; percentage phosphate binding capacity, pH 8 [1, 8]: 60.5 ± 1.5% |
| [Mg+2].[OH-].[OH-] [Mg(OH)2, magnesium hydroxide] | 61.1 ± 7.5% | 45.7 ± 5.9% | 12.5 ± 3.7% | 3.7 fold | 81% and 87% | 82% and 80% | 54% and 58% | 17% and 28% | 38-53 grams | 0.35 ± 0.08 µmol/L | 2.58 ± 0.05 (n = 3) mmol l^−1 | 29.4 ± 7.9 (n = 3) mmol l^−1 | 0.17 ± 0.07 µg | 183 ± 17 μmol g^−1 dry weight faeces | 65 ± 53 µmol | none of the animal groups treated with Mg(OH)2, CT 100 or CTFeMg showed an increase in faecal hydration compared to the controls | phosphate binding at pH 3, comparison [6]: best phosphate binder; phosphate binding in food, comparison [7]: not the best when used in food; urinary magnesium excretion, comparison between groups [4]: significantly higher than the control group or animals treated with any other binder |
| Al2Mg6(OH)16CO3.4H2O [CT100] |  |  |  |  |  |  |  |  | 38-53 grams |  |  |  |  |  |  | none of the animal groups treated with Mg(OH)2, CT 100 or CTFeMg showed an increase in faecal hydration compared to the controls |  |

— patent US20140120180A1, “METAL COMPOUNDS MIXED OR SULPHATED, AS PHOSPHATE BINDERS” (CYTOCHROMA DEVELOPMENT INC., priority 1997, published 2014)
